In patent US20130296311A1, “INHIBITORS OF HCV NS5A” (PRESIDIO PHARMACEUTICALS, INC., priority 2010, published 2013):
Read-outs that look alike come from different tables or passages of the source.

Tested on: HCV 1b_Huh-Luc/Neo-ET cell line persistently expressing a bicistronic genotype 1b replicon in Huh 7 cells
Assay: HCV replicon assay (luciferase readout, 72 h)
Type: cell-based, HCV genotype 1b
Conditions: Hepatitis C virus
Outline: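 Huh 7 cells carrying a bicistronic genotype 1b luciferase/neo replicon received compound in triplicate the day after plating. After 72 h, replicon levels were read as Bright-Glo luciferase activity, expressed as % of control; EC50 was fitted with a four-parameter logistic and determined several times.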

[1] = Huh-7, 72 h, read-out: Inhibition of HCV genotype 1b
[2] = Huh-7, read-out: Inhibition of HCV genotype 1b

## COC(=O)N[C@H](C(=O)N1CCC[C@H]1c1ncc(-c2ccc3nc(C#Cc4ccc5nc([C@@H]6CCCN6C(=O)[C@@H](NC(=O)OC)C6CCOCC6)[nH]c5c4)ccc3c2)[nH]1)C1CCOCC1 [Compound 1108]
[1]
  EC50: < 1 nM

## [2H]C([2H])([2H])C([2H])(C([2H])([2H])[2H])[C@@]([2H])(NC(=O)OC)C(=O)N1CCC[C@H]1c1nc2ccc(C#Cc3ccc4c(ccc5nc([C@@H]6CCCN6C(=O)[C@@H](NC(=O)OC)C(C)C)[nH]c54)c3)cc2[nH]1 [Compound 1278]
[2]
  EC50: < 1 nM

## COC(=O)N[C@H](C(=O)N1CC[C@H](O)[C@H]1c1ncc(-c2ccc(C#Cc3ccc4nc([C@@H]5CCCN5C(=O)[C@@H](NC(=O)OC)C(C)C)[nH]c4c3)cc2)[nH]1)C(C)C [Compound 1068]
[1]
  EC50: < 1 nM

## COC(=O)N[C@@H](Cc1ccccc1)C(=O)N1CCC[C@H]1c1ncc(-c2ccc(C#Cc3ccc4nc([C@@H]5CCCN5C(=O)[C@H](Cc5ccccc5)NC(=O)OC)[nH]c4c3)cc2)[nH]1 [Compound 1045]
[1]
  EC50: < 1 nM

## COC(=O)N[C@H](C(=O)N1CCC[C@H]1c1ncc(-c2ccc(C#Cc3ccc4nc([C@@H]5CCCN5C(=O)[C@@H](NC(=O)OC)C(C)C)[nH]c4c3)cc2F)[nH]1)C(C)C [Compound 1223]
[2]
  EC50: < 1 nM

## CS(=O)(=O)N[C@@H](C(=O)N1CCC[C@H]1c1ncc(-c2ccc(C#Cc3ccc(-c4cnc([C@@H]5CCCN5C(=O)[C@@H](c5ccccc5)N5CCCCC5)[nH]4)cc3)cc2)[nH]1)c1ccccc1 [Compound 231]
[1]
  EC50: < 1 nM

## COC(=O)N[C@@H](C(=O)N1CCC[C@H]1c1ncc(-c2ccc(C#Cc3ccc4nc([C@@H]5CCCN5C(=O)[C@H](NC(=O)OC)c5ccccc5)[nH]c4c3)cc2F)[nH]1)c1ccccc1 [Compound 1222]
[2]
  EC50: < 1 nM

## COC(=O)N[C@H](C(=O)N1CCC[C@H]1c1ncc(-c2ccc(C#Cc3ccc(-c4cnc([C@@H]5CCCN5C(=O)[C@@H](C(C)C)N(C)C)[nH]4)cc3)cc2)[nH]1)C(C)C [Compound 954]
[1]
  EC50: 1 to 9.9 nM

## O=C([C@H](O)c1ccccc1)N1CCC[C@H]1c1ncc(C#Cc2ccc(-c3cnc([C@@H]4CCCN4C(=O)[C@H](O)c4ccccc4)[nH]3)cc2)[nH]1 [Compound 112]
[1]
  EC50: < 1 nM

## COC(=O)N[C@@H](C)C(=O)N1CCC[C@H]1c1ncc(-c2ccc(C#Cc3ccc(-c4cnc([C@@H]5CCCN5C(=O)[C@H](C)NC(=O)OC)[nH]4)cc3)cc2)[nH]1 [Compound 962]
[1]
  EC50: < 1 nM

## COC(=O)N[C@H](C(=O)N1CCC[C@H]1c1ncc(-c2ccc(C#Cc3ccc(-c4cnc([C@@H]5CCCN5C(=O)[C@H](NC(=O)N5CC[C@@H](O)C5)c5ccccc5)[nH]4)cc3)cc2)[nH]1)C(C)C [Compound 975]
[1]
  EC50: < 1 nM

## COC(=O)N[C@@H](Cc1cnc[nH]1)C(=O)N1CCC[C@H]1c1ncc(-c2ccc(C#Cc3ccc4nc([C@@H]5CCCN5C(=O)[C@H](Cc5cnc[nH]5)NC(=O)OC)[nH]c4c3)cc2)[nH]1 [Compound 1048]
[1]
  EC50: 1 to 9.9 nM

## COC[C@H](NC(=O)OC)C(=O)N1CCC[C@H]1c1nc2ccc(C#Cc3ccc(-c4cnc([C@@H]5CCCN5C(=O)[C@@H](NC(=O)OC)C(C)C)[nH]4)cc3)cc2[nH]1 [Compound 1243]
[2]
  EC50: < 1 nM

## C[C@H](NC(=O)[C@@H]1CCCN1C(=O)[C@H](NC(=O)C1CC1)c1ccccc1)c1ccc(C#Cc2cnc([C@@H]3CCCN3C(=O)[C@H](NC(=O)C3CC3)c3ccccc3)[nH]2)cc1 [Compound 132]
[1]
  EC50: 10 to 999 nM

## COC(=O)N[C@H](C(=O)N1CCC[C@H]1c1ncc(-c2ccc(C#Cc3ccc(-c4cnc([C@@H]5CCCN5C(=O)[C@@H](c5ccccc5)N5CCC(C)(O)CC5)[nH]4)cc3)cc2)[nH]1)C(C)C [Compound 970]
[1]
  EC50: < 1 nM

## COC(=O)N[C@H](C(=O)N1CCC[C@H]1c1ncc(-c2ccc3cc(C#Cc4[nH]c([C@@H]5CCCN5C(=O)[C@@H](NC(=O)OC)[C@@H](C)OC)nc4C(F)(F)F)ccc3c2)[nH]1)C1CCCC1 [Compound 1260]
[2]
  EC50: < 1 nM

## CC(C)(C)OC(=O)N[C@@H](C(=O)N1CCC[C@H]1c1ncc(-c2ccc(C#Cc3ccc4nc([C@@H]5CCCN5C(=O)[C@H](NC(=O)OC(C)(C)C)c5ccccc5)[nH]c4c3)cc2)[nH]1)c1ccccc1 [Compound 801]
[1]
  EC50: < 1 nM

## CN1CCC[C@@H]1C(=O)N[C@@H](C(=O)N1CCC[C@H]1c1ncc(-c2ccc(C#Cc3ccc(-c4cnc([C@@H]5CCCN5C(=O)[C@H](NC(=O)C5CC5)c5ccccc5)[nH]4)cc3)cc2)[nH]1)c1ccccc1 [Compound 216]
[1]
  EC50: < 1 nM

## CC(C)(C)OC(=O)N[C@@H](C(=O)N1CCC[C@H]1c1ncc(C#Cc2ccc(C#Cc3cnc([C@@H]4CCCN4C(=O)[C@H](NC(=O)OC(C)(C)C)c4ccccc4)[nH]3)cc2)[nH]1)c1ccccc1 [Compound 300]
[1]
  EC50: < 1 nM

## COC(=O)N[C@@H](C(=O)N1CCC[C@H]1CNC(=O)c1ccc(C#Cc2ccc(-c3cnc([C@@H]4CCCN4C(=O)[C@H](NC(=O)OC)c4ccccc4)[nH]3)cc2)cc1)c1ccccc1 [Compound 211]
[1]
  EC50: < 1 nM

## COC(=O)N[C@@H](C(=O)N1CCC[C@H]1c1ncc(-c2ccc(C#Cc3ccc(-c4cnc([C@@H]5CCCN5C(=O)OCc5ccccc5)[nH]4)cc3)cc2)[nH]1)c1ccccc1 [Compound 200]
[1]
  EC50: < 1 nM

## COC(=O)N[C@@H](C(=O)N1CCC[C@H]1c1ncc(-c2ccc(C#Cc3ccc(-c4cnc([C@@H]5CCCN5C(=O)[C@H]5CCCO5)[nH]4)cc3)cc2)[nH]1)c1ccccc1 [Compound 177]
[1]
  EC50: < 1 nM

## COC(=O)N[C@@H](CCC(=O)O)C(=O)N1CCC[C@H]1c1ncc(-c2ccc(C#Cc3ccc4nc([C@@H]5CCCN5C(=O)[C@H](CCC(=O)O)NC(=O)OC)[nH]c4c3)cc2)[nH]1 [Compound 1047]
[1]
  EC50: 10 to 999 nM

## CC(C)[C@@H](NC(=O)OC(C)(C)C)C(=O)N1CCC[C@H]1c1ncc(-c2ccc(C#Cc3ccc(-c4cnc([C@@H]5CCCN5C(=O)[C@H](NC(=O)OC(C)(C)C)C(C)C)[nH]4)cc3)cc2)[nH]1 [Compound 152]
[1]
  EC50: 10 to 999 nM

## CNC(=O)N[C@@H](C(=O)N1CCC[C@H]1c1ncc(-c2ccc(C#Cc3ccc(-c4cnc([C@@H]5CCCN5C(=O)[C@H](NC(=O)C5CC5)c5ccccc5)[nH]4)cc3)cc2)[nH]1)c1ccccc1 [Compound 997]
[1]
  EC50: < 1 nM

## COC(=O)N[C@@H](C(=O)N1CCC[C@H]1c1ncc(-c2ccc(C#Cc3ccc(-c4cnc([C@@H]5CCCN5C(=O)[C@H](NC(=O)N5CC[C@H](F)C5)c5ccccc5)[nH]4)cc3)cc2)[nH]1)c1ccccc1 [Compound 270]
[1]
  EC50: < 1 nM

## COC(=O)N[C@H](C(=O)N(C)[C@@H](C)c1ncc(-c2ccc(C#Cc3ccc(-c4cnc([C@@H]5CCCN5C(=O)[C@@H](NC(=O)OC)C(C)C)[nH]4)cc3)cc2)[nH]1)C(C)C [Compound 267]
[1]
  EC50: < 1 nM

## COC(=O)N[C@@H](C(=O)N1CCC[C@H]1c1ncc(-c2ccc(C#Cc3ccc(C(=O)NC[C@@H]4CCCN4C(=O)[C@@H](c4ccccc4)N(C)C)cc3)cc2)[nH]1)c1ccccc1 [Compound 234]
[1]
  EC50: < 1 nM

## COC(=O)N[C@H](C(=O)N1CCC[C@H]1c1ncc(C#Cc2cccc3c(C#Cc4cnc([C@@H]5CCCN5C(=O)[C@@H](NC(=O)OC)C(C)C)[nH]4)cccc23)[nH]1)C(C)C [Compound 1113]
[1]
  EC50: < 1 nM

## CC(=O)N[C@@H](C(=O)N1CCC[C@H]1c1ncc(-c2ccc(C#Cc3ccc(-c4cnc([C@@H]5CCCN5C(=O)[C@H](NC(C)=O)c5ccccc5)[nH]4)cc3)cc2)[nH]1)c1ccccc1 [Compound 158]
[1]
  EC50: < 1 nM

## COC(=O)N[C@H](C(=O)N1CCC[C@H]1c1nc2ccc(C#Cc3ccc(-c4cnc([C@@H]5CCCN5C(=O)[C@H](C(C)C)N(C)C)[nH]4)cc3)cc2[nH]1)C(C)C [Compound 866]
[1]
  EC50: < 1 nM
